Reference: patent publication US20040023924A1, “Use of xyloglucan polymers and oligomers, and derivative compounds, as phytosanitary products and biofertilizers” (priority 2000, published 2004)

Experiments:
[1] = tested on: β-D-xylosidase (EC 3.2.1.37); assay: Induction of a β-D-xylosidase response in elicited cells; type: cell-based, Acer pseudoplatanus L.; conditions: 50 nM elicitor; for β-D-xylosidase response R (activity in elicited cells/non-elicited control cells), maximal: 15 minutes; for β-D-xylosidase response: 42 hours; for β-D-xylosidase response R: after 1 hour
Procedure: (§1) Vegetable material: Acer pseudoplatanus L Cells in Suspension
(§2) Test: 2.10^6 Acer pseudoplatanus L. cells were elicited under circular stirring (80 rpm), in 25 ml of culture medium (without 2,4-D) by 50 nM of 2′-fucosyl lactose (compound A) or 50 nM of methyl α-L-Fuc (1→2) β-D-Gal (1→2) β-D-Xyl trisaccharide (compound B)(synthesized according to Lopez et al., 1994) or for a variable time (0 to 42 hours) in the presence or not in the presence of an effector: cycloheximide (1 μM), okadaic acid (5 nM), staurosporine (500 nM), or boroglycine (500 nM). The elicitation experiment is stopped by putting the cells in ice. The cells recovered after decantation and taken up in approximately 1 ml of elicitation buffer are the subject of a specific protein extraction.
(§3) D-glycosylhydrolase extraction. The enzyme extracts are prepared from elicited or non-elicited cells. The cells are homogenized at 0° C. in Tris-HCl buffer (50 mM pH 7.2) containing 1 M of NaCl with a Vibracell™ Bioblock sonicator, maximum power, for 3 times 1 minute. The homogenates are centrifuged at 4° C. (12000 g, 15 minutes) then dialysed and concentrated on Ultrafree™ Millipore ultrafiltration units (cut-off threshold 10 kDa). The retentates, taken up in distilled water, are crude extracts.
β-D-xylosidase activity assay according to the protocol of Lee and Zeikus (1993) after incubation of the enzyme extracts (2 to 4 μg of proteins) in sodium acetate buffer (0.1 M, pH 5), at 40° C. for a variable time (90 to 210 minutes), in the presence of p-nitrophenyl β-D-xylopyranoside (p-NPX) substrate (7.3 μM). After addition of Na2CO3 (0.1 M), the products released are assayed by spectrophotometry at 410 nm.
(§4) Evaluation of the experimental data. At least 2 kinetics were carried out per sample, and per set of experiments. The reaction rate (ΔA410 minutes^−1 for example) is obtained by linear regression from 4 kinetic curves. The results are expressed by the ratio R (enzymatic activity in elicited cells/enzymatic activity in non-elicited control cells).

[2] = tested on: Rubus fruticosus protoplasts; assay: Elicitation of an oxidative burst: generation of superoxide anion (Cyt c assay); type: cell-based; conditions: 25° C.; for Cytochrome c reduction response (100% = non-elicited controls): at 10 nM; for Optimal response, cytochrome c reduction (100% = non-elicited controls): at the optimal dose
Procedure: Preparation of Rubus fruticosus protoplasts according to Vargas-Rechia (1998). The protoplast yield is of the order of 70 to 85% of the initial number of cells used; the viability of the protoplasts, of the order of 90 to 95%, was checked using Evans blue indicator.
The Cyt c assay was carried out according to Nakanishi et al. (1991) in the following manner. Incubation at 25° C. of 4.10^6 protoplasts in the presence of Cyt c (100 μM), and of the elicitor (0 to 100 μM): 2′-fucosyl lactose (compound A), XXFGol (compound B).
Evaluation of the experimental data: The reaction rate is given by (AF340 min^−1). At least three kinetic curves are plotted per experimental condition. One point on the graph corresponds to the slope of the regression curve deduced from at least 6 kinetic curves.
The elicitation response is evaluated according to the cytochrome c reduction measured by the absorbance variation at […]; the 100% reference value corresponds to the reduction count of the controls (non-elicited protoplast suspensions).

[3] = tested on: papain (EC 3.4.22.2); assay: Induction of a thiol-protease (papain) inhibitor in elicited cells; type: cell-based, Acer pseudoplatanus L.; conditions: 50 nM elicitor; for Papain inhibitor potential, early reaction: after 30 minutes; for Papain inhibitor potential, late reaction: after 42 hours
Procedure: Vegetable Material: Acer pseudoplatanus L. Cells in Suspension
Test: 2.10^6 cells of Acer pseudoplatanus L. were elicited by 50 nM of 2′-fucosyl lactose (compound A) or by 50 nM of methyl α-L-Fuc (1→2)β-D-Gal (1→2)β-D-Xyl trisaccharide (compound B) (synthesized according to Lopez et al., 1994) for 30 minutes or for 42 hours. Inhibitors of protease (IP) were prepared according to the protocol of Walker-Simmons (1977) starting from elicited or non-elicited cells. It was verified that the viability of the cells was maintained at more than 85% for the whole duration of the experiment.
Papain activity assay: the reaction medium contains an aliquot of IP extract (equivalent to 1 or 2 μg of proteins) in sodium phosphate citrate buffer (0.1M) pH 6 enriched with cysteine-HCl (5 mM), papain (EC 3.4.22.2) (0.48 units), p-nitroanilide N-α-benzoyl-D-L-arginine (BAPNA) (0.27 mM). The activity assay is based on the absorbance measurement at 410 nm. The reaction rate is given by ΔA410 min^−1.
Evaluation of the experimental data: for a given sample, the activity of an IP inhibitor isolated from this sample is estimated by developing the protease kinetics (recording at 410 nm for IO minutes in the presence or not in the presence of a variable quantity of inhibitor). The experimental conditions adopted (incubation time, substrate, enzyme and IP extract concentrations) are those which lead to linear and reproducible kinetics. The initial reaction rate is the slope α(A410 minutes^−1) of a curve A410=f(t). For a given sample, at least three curves are plotted and the initial rate is deduced by linear regression. The protease activity modulation capacity is expressed as a % of the control activity (protease activity without IP inhibitor).
The elicitation response is evaluated according to the papain inhibition measured in the presence of a protease inhibitor prepared from cells elicited by 2′ fucosyl lactose (2A) or by methyl α-L-Fuc (12) β-D-Gal (12) β-D-Xyl trisaccharide (2B); the results are expressed as a % of the control activity (papain activity in the non-elicited cells measured without inhibitor).

[4] = tested on: 1,4 β-D-glucanase (EC 3.2.1.4); assay: Induction of a 1,4 β-D-glucanase response in elicited cells; type: cell-based, Acer pseudoplatanus L.; conditions: 50 nM elicitor; for 1,4 β-D-glucanase response R: 42 hours; for 1,4 β-D-glucanase early response R: after 20 minutes
Procedure: as §1, §2, §3
1,4 β-D-glucanase activity assay. This is based on colorimetric assay (ferricyanide test of Kidby and Davidson (1973) of the cellopentaose substrate reducing units released during the hydrolysis. The reaction medium contains the enzyme extract (1 μg of proteins), reduced cellopentaose (4 μM) in 100 μl of sodium acetate buffer (0.1 M), pH 5.0); the enzymatic reaction at 40° C. develops over a variable time (1 to 3 hours).
as §4

[5] = tested on: endochitinase (EC 3.2.1.14); assay: Induction of an endochitinase response in elicited cells; type: cell-based, Acer pseudoplatanus L.; conditions: 50 nM elicitor; for Endochitinase response: 42 hours; for Endochitinase early response R: after approximately 25 minutes
Procedure: as §1, §2, §3
Endochitinase activity assay. This is based on the released reducing sugar assay according to Somogyi (1952). The reaction medium contains the enzyme extract (1 μg of proteins), the substrate (25 μg of chitin) in 100 μl of sodium acetate buffer (0.1 M), pH 5.0; the enzymatic reaction at 40° C. develops over a variable time (1 to 5 hours).
as §4

Compound	β-D-xylosidase response R (activity in elicited cells/non-elicited control cells), maximal [1]	β-D-xylosidase response [1]	β-D-xylosidase response R [1]	Elicitor dose of optimal response, cytochrome c reduction (superoxide anion) [2] [nM]	Cytochrome c reduction response (100% = non-elicited controls) [2] [%]	Optimal response, cytochrome c reduction (100% = non-elicited controls) [2] [%]	Papain inhibitor potential, early reaction [3]	Papain inhibitor potential, late reaction [3]	1,4 β-D-glucanase response R [4]	1,4 β-D-glucanase early response R [4]	Endochitinase response [5]	Endochitinase early response R [5]
C[C@@H]1O[C@@H](O[C@H]2[C@H](O[C@H]3[C@H](O)[C@@H](O)[C@H](O)O[C@@H]3CO)O[C@H](CO)[C@H](O)[C@@H]2O)[C@@H](O)[C@H](O)[C@@H]1O [compound A, α-L-Fuc(1→2)β-D-Gal(1→4)β-D-Glc]	9	no significant response	1	50	187	200	same papain inhibitor potential	lower intensity	~4	~5	no enzymatic activation was detected	~6
CO[C@@H]1OC[C@@H](O)[C@H](O)[C@H]1O[C@@H]1O[C@H](CO)[C@H](O)[C@H](O)[C@H]1O[C@@H]1O[C@@H](C)[C@@H](O)[C@@H](O)[C@@H]1O [compound B, methyl α-L-Fuc (1→2)β-D-Gal (1→2)β-D-Xyl]	5	no significant response	1	15	160	159	same papain inhibitor potential	lower intensity	~4	~5	no enzymatic activation was detected	~6
